Results reported in patent EP2027850A1, “Pharmaceutical compositions containing voriconazole” (SANDOZ AG, priority 2007, dated 2009).

Assay: solubility of voriconazole in N-methylpyrrolidone and water / NMP mixtures
Type: physicochemical
Method: This can also be used to improve the solubility of voriconazole in aqueous solutions.
0.210 g Voriconazole are dissolved in 50 mL N-Methylpyrrolidone (NMP) using a magnetic stirrer. Further aliquots of 0.305 g, 0.519 g and 1.009 Voriconazole are added to NMP-solution using magnet stirring. Solution I is obtained, composed of […] Voriconazole in 50 mL NMP.
0.45 - 0.55 g Voriconazole are dissolved in NMP according to example 1. After obtaining a clear solution, solutions are made up with water to 20.0 mL.
Therefore, in 20 mL solution, 0.5 g Voriconazole can be dissolved with water / NMP mixtures.

C[C@@H](c1ncncc1F)[C@](O)(Cn1cncn1)c1ccc(F)cc1F [Voriconazole, (2R,3S)-2-(2,4-Difluorophenyl)-3-(5-fluoro-4-pyrimidinyl)-1-(1H-1,2,4-triazol-1-yl)-butan-2-ol]
solubility in N-methylpyrrolidone: extremely high
